This note sets out measurements from patent US5498628A, “Naphthamide derivatives” (Institut National de la Sante et de la Recherche Medicale, priority 1991, dated 1996).

Counter-ions that a name gives are not always drawn.

For orientation: Ki means a dissociation constant, usually derived from enzyme kinetics or from competition with a known ligand.

Data set [1] has as its target HUMAN D3 DOPAMINERGIC RECEPTOR (Homo sapiens, UniProt P35462). As to the kind of experiment: biochemical. The following applies: read-out: Ki VALUE (inhibition constant for binding of [^125 I]iodosulpiride). On the procedure:
The inhibition constants for the binding of [^125 I]iodosulpiride to the D3 receptor were measured as described in the French Patent Application filed by INSERM on 6th Nov. 1990 under No. 90/13731.

Data set [2] concerns dopamine receptors. As to the kind of experiment: Antagonism of apomorphine-induced rearing in mice (dopamine receptor blockade in vivo). The following applies: i.p. On the procedure:
(§1) The capacity to bring about a blockade of the dopamine receptors in vivo was evaluated for some of the compounds according to the invention. The tests used were the antagonism of stereotyped sniffing and rearing induced by apomorphine in mice. These tests have been described by Protais et al. (Psychopharmacology, 1976, 50:1-6) and by Vasse et al. (Naunyn Schmiedeberg's Arch. Pharmacol., 1985, 329:108-116).

In data set [3] the test system is dopamine receptors. Description: Antagonism of apomorphine-induced stereotyped sniffing in mice (dopamine receptor blockade in vivo). The following applies: Mus musculus, ip, read-out: ID50 for the antagonism of sniffing. As for the experimental part: as §1

Sequence of UniProt P35462 (P35462 whole entry): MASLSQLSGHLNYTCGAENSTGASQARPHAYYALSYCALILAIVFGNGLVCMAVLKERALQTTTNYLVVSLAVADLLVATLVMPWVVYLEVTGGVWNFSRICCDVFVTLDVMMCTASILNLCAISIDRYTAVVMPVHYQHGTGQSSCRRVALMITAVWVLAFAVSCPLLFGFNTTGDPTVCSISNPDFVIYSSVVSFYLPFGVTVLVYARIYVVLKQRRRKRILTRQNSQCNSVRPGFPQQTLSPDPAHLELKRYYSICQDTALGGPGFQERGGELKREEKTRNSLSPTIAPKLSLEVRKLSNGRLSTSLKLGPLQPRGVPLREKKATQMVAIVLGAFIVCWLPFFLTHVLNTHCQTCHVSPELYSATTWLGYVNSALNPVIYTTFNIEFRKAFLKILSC

Take `COc1c(C(=O)NCC2CCCN2Cc2ccccc2)cc(Cl)c2ccccc12` (stereo not drawn) [Example 13, 4-Chloro-N-[(N-benzyl-2-pyrrolidinyl)methyl]-1-methoxy-2-naphthamide]: the inhibition constant Ki in data set [1] turned out to be 4.7 nM.

`CCN1CCCC1CNC(=O)c1cc([N+](=O)[O-])c2ccccc2c1OC` (stereo not drawn) [Example 6, 4-Nitro-N-[(N-ethyl-2-pyrrolidinyl)methyl]-1-methoxy-2-naphthamide]: the Ki in data set [1] amounted to 0.3 nM.

`CCCCN1CCCC1CNC(=O)c1cc(Br)c2ccccc2c1OC` (stereo not drawn) [Example 1, N-[(N-1-butyl-2-pyrrolidinyl)methyl]-1-methoxy-4-bromo-2-naphthamide hydrochloride]: in data set [1], the Ki amounted to 0.24 nM.

For `COc1c(C(=O)NCC2CCCN2Cc2ccccc2)ccc2ccccc12` (stereo not drawn) [Example 11, N-[(N-Benzyl-2-pyrrolidinyl)methyl]-1-methoxy-2-naphthamide hydrochloride], in data set [1], the Ki was 91 nM.

Turning to `C=CCN1CCCC1CNC(=O)c1cc(C#N)c2ccccc2c1OC` (stereo not drawn) [Example 2, N-[(N-allyl-2-pyrrolidinyl)methyl]-1-methoxy-4-cyano-2-naphthamide], the inhibition constant Ki in data set [1] stood at 0.51 nM.

In the case of `CCN1CCCC1CNC(=O)c1ccc2ccccc2c1OC` (stereo not drawn) [Example 4, N-[(N-Ethyl-2-pyrrolidinyl)methyl]-1-methoxy-2-naphthamide], the inhibition constant Ki in data set [1] is 35 nM.

`COc1c(C(=O)NCC2CCCN2Cc2ccccc2)cc([N+](=O)[O-])c2ccccc12` (stereo not drawn) [Example 12, 4-Nitro-N-[(N-benzyl-2-pyrrolidinyl)methyl]-1-methoxy-2-naphthamide]: the Ki in data set [1] stood at 1.7 nM.

Turning to `C=CCN1CCCC1CNC(=O)c1cc([N+](=O)[O-])c2ccccc2c1OC` (stereo not drawn) [Example 17], in data set [1], the inhibitory constant (Ki) was determined as 0.35 nM.

For the compound `CCN1CCCC1CNC(=O)c1cc(Cl)c2ccccc2c1OC` (stereo not drawn) [Example 8, 4-Chloro-N-[(N-ethyl-2-pyrrolidinyl)methyl]-1-methoxy-2-naphthamide hydrochloride], the Ki in data set [1] worked out at 0.26 nM. Also, the ED50 in the data set on dopamine receptors [2] (Mus musculus, ip, apomorphine-induced rearing, read-out: ID50 for the antagonism of rearing) came to 0.16 mg/kg; with dopamine receptors [3], 0.42 mg/kg. The “crossing of the blood-brain barrier” value with dopamine receptors [2] (inferred from ID50 values for rearing and sniffing) is listed as “readily crosses the blood-brain barrier”.
